In one assay the test system is viral NAs. The assay is classed as biochemical, reverse-genetic influenza A viruses rgH1N1, rgH5N1, rgH1N3.
Another assay addresses rgH5N1 NA (Influenza A virus, UniProt Q6DPL2). It is filed as biochemical.

Molecules are shown by their SMILES.

rgH5N1 NA, sequence (Q6DPL2 whole entry, looked up): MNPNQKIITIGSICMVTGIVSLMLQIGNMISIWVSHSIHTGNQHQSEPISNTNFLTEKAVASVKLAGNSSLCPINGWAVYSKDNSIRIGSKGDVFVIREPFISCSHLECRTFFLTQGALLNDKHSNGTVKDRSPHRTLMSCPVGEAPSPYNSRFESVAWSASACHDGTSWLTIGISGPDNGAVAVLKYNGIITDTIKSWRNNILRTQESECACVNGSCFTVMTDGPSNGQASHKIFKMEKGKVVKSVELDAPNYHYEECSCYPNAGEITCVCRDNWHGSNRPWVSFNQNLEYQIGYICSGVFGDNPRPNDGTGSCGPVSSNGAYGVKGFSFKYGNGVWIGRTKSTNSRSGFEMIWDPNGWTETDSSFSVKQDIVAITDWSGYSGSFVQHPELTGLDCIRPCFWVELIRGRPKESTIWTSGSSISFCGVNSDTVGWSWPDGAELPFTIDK

As a reminder, the Km is the concentration of substrate that gives half-maximal velocity. `CC(=O)N[C@@H]1[C@@H](O)C[C@](Oc2ccc3c(C)cc(=O)oc3c2)(C(=O)O)O[C@H]1C(O)[C@H](O)CO` (stereo partly drawn) [MUNANA, 2′-(4-methylumbelliferyl)-α-D-N-acetylneuraminic acid]: the results for the Km in the assay with viral NAs and at rgH5N1 NA were 15 to 18 µM and 15 ± 3 µM, respectively.

The record behind these values is paper PMC7112848 (Journal of Virological Methods, 2008).
